Test results as given in patent US20210251220A1, “LICE ELIMINATOR” (priority 2018, published 2021).

assay: Contact angle of spreading component; format: physicochemical; conditions: 10% by weight aqueous solution, droplet on stainless steel plate, θ/2 method (JIS R3257)
Method: It is preferred that the contact angle of the spreading component to be mixed in the lice eliminator according to the present invention is 1 to 60°. When the contact angle on a solid surface of the spreading component to be mixed in the lice eliminator according to the present invention is in this range, the lice eliminator spreads wet and is easily taken onto a louse, for example, easily adheres to and spreads out over the outer skin of a louse, without being repelled by the outer skin when brought into contact with the louse, and the effect of exterminating a louse by blocking the louse from the outside, for example, by sealing the spiracle of the louse becomes higher. It is preferred that the contact angle of the spreading component contained in the lice eliminator of the present invention is measured by a θ/2 method or the like in accordance with the method described in JIS R3257 (1999) or the like. When the spreading component is soluble in water and is solid, the contact angle as an aqueous solution, for example, at 10% by weight or the like is measured. When the spreading component is not soluble in water and is in a liquid state, the contact angle is measured as the stock solution, and when the spreading component is soluble in water and is in a liquid state, the contact angle is measured as the stock solution or an aqueous solution at 10% by weight or the like.
A 10% by weight aqueous solution of each spreading component was prepared, and the contact angle when a droplet of the aqueous solution was put on a stainless steel plate was measured with a contact angle meter (CAX-150 manufactured by Kyowa Interface Science Co., Ltd.) by a θ/2 method in accordance with the method described in JIS R3257 (1999).

Compound | Contact angle (°) of agent [°]
CCCCCCCCCCCCc1ccc(S(=O)(=O)[O-])cc1.[Na+] [compound 1, Sodium dodecylbenzenesulfonate] | 25
CCCCCCCCCCCCOS(=O)(=O)[O-].[Na+] [compound 3, Sodium lauryl sulfate] | 38
CCCCCCCCCCCC[N+](C)(C)C.[Cl-] [compound 4, Lauryl trimethyl ammonium chloride] | 36
Monolauric acid polyethylene glycol [compound 10] | 39
Polyethylene glycol monolaurate [compound 9] | 34
Polyoxyethylene lauryl ether [compound 8] | 38
